Patent publication US12018021B2 (UCB Biopharma SRL, priority 2018, dated 2024)
pIC50: −log10 of the molar value.

Target: IgE-Tb / sFcεRIα-Y131A-AF488 (Homo sapiens, UniProt P01854, N146Q/N252Q)
Experiment: IgE-Tb / sFcεRIα-Y131A-AF488 FRET assay (protocol for examples 234 to 501)
Type: binding
Settings: examples 234 to 501: compound with IgE-Tb 30 minutes before sFcεRIα-Y131A-AF488, incubated 18 hours at room temperature; read-out: Y131A FRET IC50 range
Outline: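 Read-out is the 520/490 nm emission ratio (337 nm excitation) after 18 h at room temperature, background subtracted, fitted four-parameter for IC50. Final reagents: 5 nM IgE-Tb, preincubated 30 min with compound (top typically 10 μM, 2% DMSO, 3-fold 10-point), plus 25 nM sFcεRIα-Y131A-AF488.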

Sequence of IgE-Tb / sFcεRIα-Y131A-AF488 (P01854 whole entry N146Q/N252Q): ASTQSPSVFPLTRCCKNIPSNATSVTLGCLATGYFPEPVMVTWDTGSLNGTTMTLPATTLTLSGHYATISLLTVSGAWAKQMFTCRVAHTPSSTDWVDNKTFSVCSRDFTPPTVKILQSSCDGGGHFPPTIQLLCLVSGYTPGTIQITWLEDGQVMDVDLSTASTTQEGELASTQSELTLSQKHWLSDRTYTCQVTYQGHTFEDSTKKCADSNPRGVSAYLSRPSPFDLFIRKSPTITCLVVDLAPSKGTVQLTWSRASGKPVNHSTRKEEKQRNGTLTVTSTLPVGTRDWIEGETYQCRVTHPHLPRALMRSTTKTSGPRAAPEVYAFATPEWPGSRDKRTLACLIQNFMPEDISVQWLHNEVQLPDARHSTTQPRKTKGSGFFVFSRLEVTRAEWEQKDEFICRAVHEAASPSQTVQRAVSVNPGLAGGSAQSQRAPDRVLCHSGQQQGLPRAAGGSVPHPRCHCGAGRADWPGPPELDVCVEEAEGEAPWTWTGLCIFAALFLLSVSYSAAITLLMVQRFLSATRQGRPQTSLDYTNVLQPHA

Compound | pIC50
Cn1nc(C(F)F)cc1Nc1nncn1[C@H]1CCc2sc(NC(=O)C3CC(F)(F)C3)c(C(=O)NC[C@H]3C[C@H]3F)c2C1 [Example 479, (5S)-2-[(3,3-difluorocyclobutanecarbonyl)amino]-5-[3-[[5-(difluoromethyl)-2-methylpyrazol-3-yl]amino]-1,2,4-triazol-4-yl]-N-[[(1R,2R)-2-fluorocyclopropyl]methyl]-4,5,6,7-tetrahydro-1-benzothiophene-3-carboxamide] | > 6.00
Cn1nc(C(F)F)cc1Nc1nncn1[C@H]1CCc2sc(NC(=O)C3CC3(F)F)c(C(=O)N[C@H]3C[C@H](F)C3)c2C1 (mixture of isomers) [Example 493, (5S)-2-[(2,2-difluorocyclopropanecarbonyl)amino]-5-[3-[[5-(difluoromethyl)-2-methyl-pyrazol-3-yl]amino]-1,2,4-triazol-4-yl]-N-(trans-3-fluorocyclobutyl)-4,5,6,7-tetrahydrobenzothiophene-3-carboxamide] | > 6.00
Cn1nc(C(F)F)cc1Nc1nncn1[C@H]1CCc2sc(NC(=O)C3CC3)c(C(=O)N[C@H]3C[C@@H](F)C3)c2C1 [Example 388, (5S)-2-(cyclopropanecarbonylamino)-5-[3-[[5-(difluoromethyl)-2-methylpyrazol-3-yl]amino]-1,2,4-triazol-4-yl]-N-(cis-3-fluorocyclobutyl)-4,5,6,7-tetrahydro-1-benzothiophene-3-carboxamide] | > 6.00
CC(=O)N1CC[C@H](Nc2nncn2[C@H]2CCc3sc(NC(=O)C4CC4)c(C(=O)NCC4CC4)c3C2)C1 [Example 266, (5S)-5-[3-[[(3S)-1-acetylpyrrolidin-3-yl]amino]-1,2,4-triazol-4-yl]-2-(cyclopropanecarbonylamino)-N-(cyclopropylmethyl)-4,5,6,7-tetrahydrobenzothiophene-3-carboxamide] | > 6.00
Cn1nc(OC(F)F)cc1Nc1nncn1[C@H]1CCc2sc(NC(=O)C3CC(F)(F)C3)c(C(=O)NC[C@H]3C[C@H]3F)c2C1 [Example 491, (5S)-2-[(3,3-difluorocyclobutanecarbonyl)amino]-5-[3-[[5-(difluoromethoxy)-2-methylpyrazol-3-yl]amino]-1,2,4-triazol-4-yl]-N-[[(1R,2R)-2-fluorocyclopropyl]methyl]-4,5,6,7-tetrahydro-1-benzothiophene-3-carboxamide] | > 6.00
Cn1nc(C(F)(F)F)cc1Nc1nncn1[C@H]1CCc2sc(NC(=O)[C@H]3C[C@H]3F)c(C(=O)NC[C@@H]3CC3(F)F)c2C1 (single isomer, unassigned) [Example 398] | > 6.00
Cn1nc(C(F)(F)F)cc1Nc1nncn1C1COc2sc(NC(=O)C3CC3)c(C(=O)NCC3CC3)c2C1 (single isomer, unassigned) [Example 501, (3R*)-6-(cyclopropanecarbonylamino)-N-(cyclopropylmethyl)-3-[3-[[2-methyl-5-(trifluoromethyl)pyrazol-3-yl]amino]-1,2,4-triazol-4-yl]-3,4-dihydro-2H-thieno[2,3-b]pyran-5-carboxamide (* or S)] | > 6.00
C[C@H]1C[C@@H]1C(=O)Nc1sc2c(c1C(=O)N[C@H]1C[C@H](F)C1)C[C@@H](n1cnnc1Nc1cc(C(F)F)nn1C)CC2 [Example 438, (5S)-5-[3-[[5-(difluoromethyl)-2-methylpyrazol-3-yl]amino]-1,2,4-triazol-4-yl]-N-(trans-3-fluorocyclobutyl)-2-[[(1S,2S)-2-methylcyclopropanecarbonyl]amino]-4,5,6,7-tetrahydro-1-benzothiophene-3-carboxamide] | > 6.00
Cn1nc(C(F)(F)F)cc1Nc1nncn1[C@H]1CCc2sc(NC(=O)[C@H]3C[C@H]3F)c(C(=O)NCC3CC3)c2C1 [Example 312, (5S)—N-(cyclopropylmethyl)-2-[[(1R,2R)-2-fluorocyclopropanecarbonyl]amino]-5-[3-[[2-methyl-5-(trifluoromethyl)pyrazol-3-yl]amino]-1,2,4-triazol-4-yl]-4,5,6,7-tetrahydrobenzothiophene-3-carboxamide] | > 6.00
Cc1nscc1Nc1nncn1[C@H]1CCc2sc(NC(=O)C3CC3)c(C(=O)NCC3CC3)c2C1 [Example 307, (5S)-2-(cyclopropanecarbonylamino)-N-(cyclopropylmethyl)-5-[3-[(3-methylisothiazol-4-yl)amino]-1,2,4-triazol-4-yl]-4,5,6,7-tetrahydrobenzothiophene-3-carboxamide] | > 6.00
Cn1nc(C(F)F)cc1Nc1nncn1[C@H]1CCc2sc(NC(=O)C3CC3)c(C(=O)NC3CC(F)(F)C3)c2C1 [Example 387, (5S)-2-(cyclopropanecarbonylamino)-N-(3,3-difluorocyclobutyl)-5-[3-[[5-(difluoromethyl)-2-methylpyrazol-3-yl]amino]-1,2,4-triazol-4-yl]-4,5,6,7-tetrahydro-1-benzothiophene-3-carboxamide] | > 6.00
O=C(NCC1CC1)c1c(NC(=O)C2CC2)sc2c1C[C@@H](n1cnnc1Nc1ccc(C(F)F)nc1)CC2 [Example 423, (5S)-2-(cyclopropanecarbonylamino)-N-(cyclopropylmethyl)-5-[3-[[6-(difluoromethyl)-3-pyridyl]amino]-1,2,4-triazol-4-yl]-4,5,6,7-tetrahydrobenzothiophene-3-carboxamide] | > 6.00
Cc1ccc2nc(N[C@H]3CCc4sc(NC(=O)C5CC5)c(C(=O)NCC5CC5)c4C3)sc2n1 [Example 298, (5S)-2-(cyclopropanecarbonylamino)-N-(cyclopropylmethyl)-5-[(5-methylthiazolo[5,4-b]pyridin-2-yl)amino]-4,5,6,7-tetrahydrobenzothiophene-3-carboxamide] | > 6.00
Cn1nc(OC(F)F)cc1Nc1nncn1[C@H]1CCc2sc(NC(=O)[C@H]3C[C@H](F)C3)c(C(=O)N[C@H]3C[C@H](F)C3)c2C1 [Example 487, (5S)-5-[3-[[5-(difluoromethoxy)-2-methylpyrazol-3-yl]amino]-1,2,4-triazol-4-yl]-2-[trans-(3-fluorocyclobutanecarbonyl)amino]-N-(trans-3-fluorocyclobutyl)-4,5,6,7-tetrahydro-1-benzothiophene-3-carboxamide] | > 6.00
Cn1nc(OC(F)F)cc1Nc1nncn1[C@H]1CCc2sc(NC(=O)[C@H]3C[C@H](F)C3)c(C(=O)NCC3CC3)c2C1 [Example 343, (5S)—N-(cyclopropylmethyl)-5-[3-[[5-(difluoromethoxy)-2-methylpyrazol-3-yl]amino]-1,2,4-triazol-4-yl]-2-[trans-(3-fluorocyclobutanecarbonyl)amino]-4,5,6,7-tetrahydro-1-benzothiophene-3-carboxamide] | > 6.00
O=C1CC(Nc2nncn2[C@H]2CCc3sc(NC(=O)C4CC4)c(C(=O)NCC4CC4)c3C2)CN1 (stereo partly drawn) [Example 270, (5S)-2-(cyclopropanecarbonylamino)-N-(cyclopropylmethyl)-5-[3-[(5-oxopyrrolidin-3-yl)amino]-1,2,4-triazol-4-yl]-4,5,6,7-tetrahydrobenzothiophene-3-carboxamide] | > 6.00
Cn1nc(OC(F)F)cc1Nc1nncn1[C@H]1CCc2sc(NC(=O)[C@H]3C[C@H](F)C3)c(C(=O)NC[C@H]3CC3(F)F)c2C1 (single isomer, unassigned) [Example 488] | > 6.00
Cn1nc(C(F)F)cc1Nc1nncn1[C@H]1CCc2sc(NC(=O)[C@H]3CC34CC4)c(C(=O)N[C@@H]3CC34CC4)c2C1 [Example 415, (5S)-5-[3-[[5-(difluoromethyl)-2-methyl-pyrazol-3-yl]amino]-1,2,4-triazol-4-yl]-2-[[(2S)-spiro[2.2]pentane-2-carbonyl]amino]-N-[(2R)-spiro[2.2]pentan-2-yl]-4,5,6,7-tetrahydrobenzothiophene-3-carboxamide] | > 6.00
Cc1nc(C(F)(F)F)ccc1Nc1nncn1[C@H]1CCc2sc(NC(=O)C3CC3)c(C(=O)NCC3CC3)c2C1 [Example 303, (5S)-2-(cyclopropanecarbonylamino)-N-(cyclopropylmethyl)-5-[3-[[2-methyl-6-(trifluoromethyl)-3-pyridyl]amino]-1,2,4-triazol-4-yl]-4,5,6,7-tetrahydrobenzothiophene-3-carboxamide] | > 6.00
Cn1nc(C(F)F)cc1Nc1nncn1[C@H]1CCc2sc(NC(=O)[C@H]3CC34CC4)c(C(=O)NC[C@H]3C[C@H]3F)c2C1 [Example 412, (5S)-5-[3-[[5-(Difluoromethyl)-2-methylpyrazol-3-yl]amino]-1,2,4-triazol-4-yl]-N-[[(1R,2R)-2-fluorocyclopropyl]methyl]-2-[[(2S)-spiro[2.2]pentane-2-carbonyl]amino]-4,5,6,7-tetrahydro-1-benzothiophene-3-carboxamide] | > 6.00
Cn1nc(OC(F)F)cc1Nc1nncn1[C@H]1CCc2sc(NC(=O)[C@H]3C[C@@H]3F)c(C(=O)NCC3CC3)c2C1 [Example 313, (5S)—N-(cyclopropylmethyl)-5-[3-[[5-(difluoromethoxy)-2-methyl-pyrazol-3-yl]amino]-1,2,4-triazol-4-yl]-2-[[(1R,2S)-2-fluorocyclopropanecarbonyl]amino]-4,5,6,7-tetrahydrobenzothiophene-3-carboxamide] | > 6.00
Cc1cc(Nc2nncn2[C@H]2CCc3sc(NC(=O)C4CC45CC5)c(C(=O)NCC4CC4)c3C2)n(C)n1 (stereo partly drawn) [Example 499, (5S)—N-(cyclopropylmethyl)-5-[3-[(2,5-dimethylpyrazol-3-yl)amino]-1,2,4-triazol-4-yl]-2-(spiro[2.2]pentane-2-carbonylamino)-4,5,6,7-tetrahydrobenzothiophene-3-carboxamide] | > 6.00
COc1cc(Nc2nncn2[C@H]2CCc3sc(NC(=O)[C@H]4C[C@@H]4C)c(C(=O)NC[C@H]4C[C@H](F)C4)c3C2)n(C)n1 [Example 467, (5S)—N-[trans-(3-fluorocyclobutyl)methyl]-5-[3-[(5-methoxy-2-methylpyrazol-3-yl)amino]-1,2,4-triazol-4-yl]-2-[[(1S,2S)-2-methylcyclopropanecarbonyl]amino]-4,5,6,7-tetrahydro-1-benzothiophene-3-carboxamide] | > 6.00
